# Reference: US6969697B2, “Substituted benzoylcyclohexenones” (Bayer Aktiengesellschaft, priority 2000, dated 2005)
# What was measured:
# [1] = logP by reversed-phase HPLC (EEC Directive 79/831 Annex V.A8), acidic range; type: physicochemical; settings: reversed-phase column (C 18), 43° C.; a) acidic range: 0.1% aqueous phosphoric acid, acetonitrile, linear gradient 10% to 90%
# Experimental: The logP values given in Table 1 were determined in accordance with EEC Directive 79/831 Annex V.A8 by HPLC (High Performance Liquid Chromatography) using a reversed-phase column (C 18). Temperature: 43° C. • (a) Mobile phases for the determination in the acidic range: 0.1% aqueous phosphoric acid, acetonitrile; linear gradient from 10% acetonitrile to 90% acetonitrile—the corresponding data are labelled ^a) in Table 1. • (b) Mobile phases for the determination in the neutral range: 0.01 molar aqueous phosphate buffer solution, acetonitrile; linear gradient from 10% acetonitrile to 90% acetonitrile—corresponding data are labelled ^b) in Table 1.
# Calibration was carried out using unbranched alkan-2-ones (having 3 to 16 carbon atoms), with known logP values (determination of the logP values by the retention times using linear interpolation between two successive alkanones).
# [2] = test system: weeds; test: Post-emergence test (Example B), herbicidal activity; type: in vivo; settings: test plants 5-15 cm sprayed, rated after three weeks
# Experimental: (§1) • Solvent: 5 parts by weight of acetone • Emulsifier: 1 part by weight of alkilaryl polyglycol ether
# (§2) To produce a suitable preparation of active compound, 1 part by weight of active compound is mixed with the stated amount of solvent, the stated amount of emulsifier is added and the concentrate is diluted with water to the desired concentration.
# (§3) Test plants of a height of 5-15 cm are sprayed with the preparation of active compound such that the particular amounts of active compound desired are applied per unit area. The concentration of the spray liquor is chosen such that the particular amounts of active compound desired are applied in 1000 l of water/ha.
# (§4) After three weeks, the degree of damage to the plants is rated in % damage in comparison to the development of the untreated control.
# (§5) The figures denote: • 0%=no effect (like untreated control) • 100%=total destruction
# [3] = test system: maize; test: Post-emergence test (Example B), crop plant tolerance, maize; type: in vivo; settings: rated after three weeks
# Experimental: as §1, §2, §3, §4, §5
# [4] = test system: wheat; test: Post-emergence test (Example B), crop plant tolerance, wheat; type: in vivo; settings: rated after three weeks
# Experimental: as §1, §2, §3, §4, §5
# [5] = test system: weeds; test: Pre-emergence test (Example A), herbicidal activity; type: in vivo; settings: soil sprayed 24 hours after sowing, rated after three weeks
# Experimental: as §1, §2
# (§6) Seeds of the test plants are sown in normal soil. After 24 hours, the soil is sprayed with the preparation of active compound such that the particular amount of active compound desired is applied per unit area. The concentration of active compound in the spray liquor is chosen such that the particular amount of active compound desired is applied in 1000 litres of water per hectare.
# (§7) After three weeks, the degree of damage to the plants is rated in % damage in comparison to the development of the untreated control. The figures denote: • 0%=no effect (like untreated control) • 100%=total destruction
# [6] = test system: maize; test: Pre-emergence test (Example A), crop plant tolerance; type: in vivo; settings: rated after three weeks
# Experimental: as §1, §2, §6, §7
SMILES,logP [1],activity against weeds (degree of damage) [2],tolerance by crop plants [3],tolerance by crop plants [4],also measured
CCN1CCN(Cc2c(Cl)ccc(C(=O)C3=C(Sc4ccccc4)CCCC3=O)c2Cl)C1=O [Example 3],logP = 3.30^a),–,–,–,–
CSC1=C(C(=O)c2ccc(C(F)(F)F)cc2Cn2nc(SC)n(C)c2=O)C(=O)CCC1 [Example 17],logP = 2.63^a),strong activity against weeds,tolerated well,tolerated well,–
CCN1CCN(Cc2c(S(C)(=O)=O)ccc(C(=O)C3=C(Sc4ccccc4)CCCC3=O)c2Cl)C1=O [Example 9],logP = 2.79^a),–,–,–,–
CSc1nn(Cc2cc(C(F)(F)F)ccc2C(=O)C2=C(Sc3ccccc3)CCCC2=O)c(=O)n1C [Example 16],logP = 3.58^a),strong activity against weeds,tolerated well,tolerated well,activity against weeds (degree of damage) [5]: strong activity against weeds; tolerance by crop plants [6]: tolerated well
CCOn1c(CC)nn(Cc2c(S(C)(=O)=O)ccc(C(=O)C3=C(Sc4ccccc4)CCCC3=O)c2Cl)c1=O [Example 10],logP = 3.13^a),–,–,–,–
"CN1CCCN(Cc2c(Cl)ccc(C(=O)C3=C(Sc4ccccc4)CCCC3=O)c2Cl)C1=O [Example 1, 1-[2,6-dichloro-3-[(6-oxo-2-phenylthio-1-cyclohexen-1-yl)-carbonyl]-benzyl]-3-methyl-tetrahydro-2(1H)-pyrimidinone]",–,strong activity against weeds,tolerated well,tolerated well,melting point: 140 °C
CN1CCN(Cc2c(S(C)(=O)=O)ccc(C(=O)C3=C(Sc4ccccc4)CCCC3=O)c2Cl)C1=O [Example 8],logP = 2.56^a),–,–,–,–
CCCCN1CCN(Cc2c(Cl)ccc(C(=O)C3=C(Sc4ccccc4)CCCC3=O)c2Cl)C1=O [Example 120],logP = 4.02^a),–,–,–,–
COc1nn(Cc2cc(C(F)(F)F)ccc2C(=O)C2=C(SC)CCCC2=O)c(=O)n1C [Example 19],logP = 2.41^a),strong activity against weeds,tolerated well,tolerated well,–
CC(C)CN1CCN(Cc2c(Cl)ccc(C(=O)C3=C(Sc4ccccc4)CCCC3=O)c2Cl)C1=O [Example 121],logP = 3.98^a),–,–,–,–

# Continued, in another order:
logP [1],SMILES,activity against weeds (degree of damage) [2],tolerance by crop plants [3],tolerance by crop plants [4],also measured
logP = 2.62^a),COc1nn(Cc2c(Cl)ccc(C(=O)C3=C(S(=O)(=O)c4ccccc4)CCCC3=O)c2Cl)c(=O)n1C [Example 14],–,–,–,–
logP = 3.69^a),CC(C)Oc1nn(Cc2c(Cl)ccc(C(=O)C3=C(Sc4ccccc4)CCCC3=O)c2Cl)c(=O)n1C [Example 12],–,–,–,–
logP = 3.30^a),COc1nn(Cc2cc(C(F)(F)F)ccc2C(=O)C2=C(Sc3ccccc3)CCCC2=O)c(=O)n1C [Example 18],strong activity against weeds,tolerated well,tolerated well,–
logP = 3.50^a),O=C1CCCC(Sc2ccccc2)=C1C(=O)c1ccc(Cl)c(Cn2nc(C3CC3)n(C3CC3)c2=O)c1Cl [Example 5],strong activity against weeds,tolerated well,tolerated well,–
logP = 2.84^a),CSc1nn(Cc2c(S(C)(=O)=O)ccc(C(=O)C3=C(Sc4ccccc4)CCCC3=O)c2Cl)c(=O)n1C [Example 6],–,–,–,–
logP = 3.10^a),CN(C)c1nn(Cc2c(Cl)ccc(C(=O)C3=C(Sc4ccccc4)CCCC3=O)c2Cl)c(=O)n1C [Example 13],–,–,–,–
logP = 3.29^a),CSc1nn(Cc2c(Cl)ccc(C(=O)C3=C(Sc4ccccc4)CCCC3=O)c2Cl)c(=O)n1C [Example 4],–,–,–,–
logP = 3.06^a),COc1nn(Cc2c(Cl)ccc(C(=O)C3=C(Sc4ccccc4)CCCC3=O)c2Cl)c(=O)n1C [Example 11],–,–,–,–
logP = 3.02^a),CN1CCN(Cc2c(Cl)ccc(C(=O)C3=C(Sc4ccccc4)CCCC3=O)c2Cl)C1=O [Example 2],strong activity against weeds,tolerated well,tolerated well,–
logP = 2.67^a),COc1nn(Cc2c(S(C)(=O)=O)ccc(C(=O)C3=C(Sc4ccccc4)CCCC3=O)c2Cl)c(=O)n1C [Example 7],–,–,–,–
